This note sets out measurements from patent publication US8530380B2 (priority 1997, dated 2013).

This assay relates to Phytophthora infestans. It counts as in vivo. As to conditions: single active ingredient, 3.1 ppm in the spray liquor; tomato plants infected next day, evaluated after 6 days.

Turning to `O=C(Nc1ccccc1-c1ccc(F)cc1)c1cccnc1Cl` [Compound I.1], the “Efficacy in % of the untreated control” value turned out to be 0%.

Turning to `COCC(=O)N(c1c(C)cccc1C)C(C)C(=O)OC` (centres unmarked) [Compound IV.3, metalaxyl], the “Efficacy in % of the untreated control” value came out at 0%.
